Measured values: PMC9005747, “Application of per-Residue Energy Decomposition to Design Peptide Inhibitors of PSD95 GK Domain” (Frontiers in Molecular Biosciences, 2022)
Where two headings read alike, the source gives them in different places. Blank lines part the entries; values can stand above or below the molecule they belong to. Non-standard residues stand in square brackets, D forms with d. Primed or numbered codes have the meaning given here. No end group written: not given here. FITC′ = fluorescein isothiocyanate label on the N-terminus; pS = N[C@@H](COP(=O)(O)O)C(=O)O

Experiments:
GK domain of PSD95 [1] = details: isothermal titration calorimetry assay; ref Zhu et al., 2017; cited from earlier work
GK domain of PSD95 [2] = details: fluorescence polarization assay, cited from earlier work
From the text: page 6: 2. Supplementary Tables Supplementary Table 1.

[3] = target: T1, His6-tagged PSD95 GK domain (a.a. 531-713) (UniProt P31016 531-713); test: fluorescence polarisation; direct titration: 10 nM FITC-SAPAP constant, His-GK 0 to 20 uM; 50 mM Tris, 100 mM NaCl, pH 7.5; 384-well plates, 1-h incubation; details: both partners purified
T1 construct: postsynaptic density protein 95 (PSD95, encoded by DLG4), guanylate kinase (GK) domain, a.a; 531-713; In the MST assay the protein was labelled on its His tag with the RED-Tris-NTA kit; The PDB entries are cited crystal structures of PSD95 GK with peptides; also called His-GK; His-PSD95 GK; source: E. coli BL21 (DE3), purified (Ni-NTA, size-exclusion chromatography); not shown: His6, N-terminal, …
T1 sequence (P31016 531-713): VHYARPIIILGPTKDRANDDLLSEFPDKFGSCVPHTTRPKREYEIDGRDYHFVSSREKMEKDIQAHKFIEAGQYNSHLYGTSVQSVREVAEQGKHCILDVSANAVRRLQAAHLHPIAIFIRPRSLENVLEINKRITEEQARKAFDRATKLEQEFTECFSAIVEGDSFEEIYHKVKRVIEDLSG

Molecule: AARRE[pS]YLKATQPSL [p-SAPAP]
Kd (GK domain of PSD95 [1]): 0.08 ± 0.01 µM

Molecule: AELEGGPYSPLGKDYRKAEGEREEEG [MAP1A]
Kd (GK domain of PSD95 [2]; ref Xia et al., 2017): 12.1 ± 0.2 µM

Molecule: GRRH[pS]MENLELMKLTPEK [p-LGN]
Kd (GK domain of PSD95 [2]; ref Zhu et al., 2011): 0.53 ± 0.09 µM

Molecule: LSRVK[pS]LKKSLRQSF [p-LGL2]
Kd (GK domain of PSD95 [2]; ref Zhu et al., 2014): 10.2 ± 1.3 µM

Molecule: RIRREEYRRAINGQSFDLS
Kd (GK domain of PSD95 [1]): 0.66 ± 0.13 µM

Molecule: RIRREEYRRAINGQSMKL
Kd (GK domain of PSD95 [1]): 1.86 ± 0.31 µM

Kd [3]: 4.28 µM
B1: FITC-labeled SAPAP peptide FITC-AARRE(pS)YLKATQ (peptide)
peptide: {FITC′}-AARRE[pS]YLKATQ
notes: phosphorylated SAPAP peptide; SAPAP1 (DLGAP1, GKAP) is the member it names elsewhere; also called FITC-SAPAP; FITC-SAPAP probe; source: synthetic peptide, bought: China Peptides
